Laboratory results: PubChem BioAssay AID2060893 (Molecular Pharmacology Branch, DTP, NCI, 2025)
Each block holds one compound with its values, some of them ahead of it.

Tested on: K86415-001-R-J1-PDC complex spheroids, viability
Test: Anticancer human tumor K86415-001-R-J1-PDC patient-derived lung adenocarcinoma cell line growth inhibition [RAS]
Settings: for IC50: curve of first compound; for viability, T/C: stronger effect = lower value
Method in brief: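 Multi-cell-type spheroids: tumor cells plus HUVEC endothelial cells and mesenchymal stem cells. RAS-pathway inhibitors were combined with targeted agents, each dosed in half-log steps down from clinical Cmax, or from 10 microM when Cmax was unknown.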

[1] = second compound 0.000949 µM, first compound 0.0316 µM
[2] = second compound 0.000949 µM, first compound 0.1 µM
[3] = second compound 0.000949 µM, first compound 0.316 µM
[4] = second compound 0.000949 µM, first compound 1 µM
[5] = second compound 0.000949 µM, first compound 3.16 µM
[6] = second compound 0.000949 µM, first compound 10 µM
[7] = second compound 0.003 µM, first compound 0.0316 µM
[8] = second compound 0.003 µM, first compound 0.1 µM
[9] = second compound 0.003 µM, first compound 0.316 µM
[10] = second compound 0.003 µM, first compound 1 µM
[11] = second compound 0.003 µM, first compound 3.16 µM
[12] = second compound 0.003 µM, first compound 10 µM
[13] = second compound 0.00949 µM, first compound 0.0316 µM
[14] = second compound 0.00949 µM, first compound 0.1 µM
[15] = second compound 0.00949 µM, first compound 0.316 µM
[16] = second compound 0.00949 µM, first compound 1 µM
[17] = second compound 0.00949 µM, first compound 3.16 µM
[18] = second compound 0.00949 µM, first compound 10 µM
[19] = second compound 0.03 µM, first compound 0.0316 µM
[20] = second compound 0.03 µM, first compound 0.1 µM
[21] = second compound 0.03 µM, first compound 0.316 µM
[22] = second compound 0.03 µM, first compound 1 µM
[23] = second compound 0.03 µM, first compound 3.16 µM
[24] = second compound 0.03 µM, first compound 10 µM
[25] = second compound 0.0949 µM, first compound 0.0316 µM
[26] = second compound 0.0949 µM, first compound 0.1 µM
[27] = second compound 0.0949 µM, first compound 0.316 µM
[28] = second compound 0.0949 µM, first compound 1 µM
[29] = second compound 0.0949 µM, first compound 3.16 µM
[30] = second compound 0.0949 µM, first compound 10 µM
[31] = second compound 0.3 µM, first compound 0.0316 µM
[32] = second compound 0.3 µM, first compound 0.1 µM
[33] = second compound 0.3 µM, first compound 0.316 µM
[34] = second compound 0.3 µM, first compound 1 µM
[35] = second compound 0.3 µM, first compound 3.16 µM
[36] = second compound 0.3 µM, first compound 10 µM
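Further: spheroids exposed to agents for seven days before readout.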

IC50 (second compound 0.000949 µM): < 31.6 nM
IC50 (second compound 0.003 µM): < 31.6 nM
IC50 (second compound 0.00949 µM): < 31.6 nM
IC50 (second compound 0.03 µM): < 31.6 nM
IC50 (second compound 0.0949 µM): < 31.6 nM
IC50 (second compound 0.3 µM): < 31.6 nM
Compound: CC(=O)OC12COC1CC(O)C1(C)C(=O)C(O)C3=C(C)C(OC(=O)C(O)C(NC(=O)OC(C)(C)C)c4ccccc4)CC(O)(C(OC(=O)c4ccccc4)C21)C3(C)C (centres undefined) + CCn1c(-c2cc(N3CCN(C)CC3)cnc2C(C)OC)c2c3cc(ccc31)-c1csc(n1)CC(NC(=O)C1CC1C)C(=O)N1CCCC(N1)C(=O)OCC(C)(C)C2
viability, T/C [1]: 26.9%
viability, T/C [2]: 21.5%
viability, T/C [3]: 17.2%
viability, T/C [4]: 22.7%
viability, T/C [5]: 25.3%
viability, T/C [6]: 19%
viability, T/C [7]: 19.2%
viability, T/C [8]: 15.6%
viability, T/C [9]: 15.1%
viability, T/C [10]: 16.7%
viability, T/C [11]: 15%
viability, T/C [12]: 12.8%
viability, T/C [13]: 9.53%
viability, T/C [14]: 7.3%
viability, T/C [15]: 7.91%
viability, T/C [16]: 7.79%
viability, T/C [17]: 5.97%
viability, T/C [18]: 6.51%
viability, T/C [19]: 5.56%
viability, T/C [20]: 5.63%
viability, T/C [21]: 4.4%
viability, T/C [22]: 3.98%
viability, T/C [23]: 2.48%
viability, T/C [24]: 2.81%
viability, T/C [25]: 3.04%
viability, T/C [26]: 2.69%
viability, T/C [27]: 2.48%
viability, T/C [28]: 1.97%
viability, T/C [29]: 2.21%
viability, T/C [30]: 2.4%
viability, T/C [31]: 2.05%
viability, T/C [32]: 2.39%
viability, T/C [33]: 1.97%
viability, T/C [34]: 2.03%
viability, T/C [35]: 2.06%
viability, T/C [36]: 1.73%

IC50 (second compound 0.000949 µM): 1180 nM
IC50 (second compound 0.003 µM): < 31.6 nM
IC50 (second compound 0.00949 µM): < 31.6 nM
IC50 (second compound 0.03 µM): < 31.6 nM
IC50 (second compound 0.0949 µM): < 31.6 nM
IC50 (second compound 0.3 µM): < 31.6 nM
Compound: CCC(CC)c1cc(NC2CCC(N)C2)n2nccc2n1 (centres undefined) + CCn1c(-c2cc(N3CCN(C)CC3)cnc2C(C)OC)c2c3cc(ccc31)-c1csc(n1)CC(NC(=O)C1CC1C)C(=O)N1CCCC(N1)C(=O)OCC(C)(C)C2
viability, T/C [1]: 46.1%
viability, T/C [2]: 48.5%
viability, T/C [3]: 56.8%
viability, T/C [4]: 79%
viability, T/C [5]: 3.84%
viability, T/C [6]: 4.58%
viability, T/C [7]: 25.1%
viability, T/C [8]: 26.1%
viability, T/C [9]: 27.8%
viability, T/C [10]: 36.2%
viability, T/C [11]: 4.27%
viability, T/C [12]: 4.26%
viability, T/C [13]: 9.9%
viability, T/C [14]: 11.2%
viability, T/C [15]: 12.9%
viability, T/C [16]: 11.8%
viability, T/C [17]: 3.06%
viability, T/C [18]: 3.75%
viability, T/C [19]: 5.14%
viability, T/C [20]: 6.25%
viability, T/C [21]: 7.94%
viability, T/C [22]: 6.31%
viability, T/C [23]: 3.03%
viability, T/C [24]: 3.65%
viability, T/C [25]: 4.23%
viability, T/C [26]: 3.98%
viability, T/C [27]: 3.55%
viability, T/C [28]: 2.72%
viability, T/C [29]: 2.97%
viability, T/C [30]: 3.31%
viability, T/C [31]: 2.9%
viability, T/C [32]: 2.91%
viability, T/C [33]: 3.27%
viability, T/C [34]: 2.5%
viability, T/C [35]: 4.29%
viability, T/C [36]: 3.48%
